Test [1] concerns the target T1, Cholecystokinin receptor type A (Homo sapiens, UniProt P32238).
T1 sequence (P32238 whole entry): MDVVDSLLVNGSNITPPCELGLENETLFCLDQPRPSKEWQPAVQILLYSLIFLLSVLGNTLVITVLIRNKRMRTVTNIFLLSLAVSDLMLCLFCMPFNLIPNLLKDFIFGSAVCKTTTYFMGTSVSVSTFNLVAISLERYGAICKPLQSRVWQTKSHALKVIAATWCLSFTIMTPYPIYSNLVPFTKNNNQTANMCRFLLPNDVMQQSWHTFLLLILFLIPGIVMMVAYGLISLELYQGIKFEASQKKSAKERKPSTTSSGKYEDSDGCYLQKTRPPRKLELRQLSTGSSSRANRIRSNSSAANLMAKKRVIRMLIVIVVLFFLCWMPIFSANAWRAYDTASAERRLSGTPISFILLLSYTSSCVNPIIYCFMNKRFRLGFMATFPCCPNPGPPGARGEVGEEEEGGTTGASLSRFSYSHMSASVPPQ
The test is described as follows: Displacement of [125I]-CCK-8 from human CCK1R expressed in human 1321N1 cell membranes after 2 hrs by SPA assay. For orientation: Loss of bound radioactivity is the signal in a displacement assay; it reports binding, not function.

Test [2] has as its target T2, Gastrin/cholecystokinin type B receptor (Homo sapiens, UniProt P32239).
T2 sequence (P32239 whole entry): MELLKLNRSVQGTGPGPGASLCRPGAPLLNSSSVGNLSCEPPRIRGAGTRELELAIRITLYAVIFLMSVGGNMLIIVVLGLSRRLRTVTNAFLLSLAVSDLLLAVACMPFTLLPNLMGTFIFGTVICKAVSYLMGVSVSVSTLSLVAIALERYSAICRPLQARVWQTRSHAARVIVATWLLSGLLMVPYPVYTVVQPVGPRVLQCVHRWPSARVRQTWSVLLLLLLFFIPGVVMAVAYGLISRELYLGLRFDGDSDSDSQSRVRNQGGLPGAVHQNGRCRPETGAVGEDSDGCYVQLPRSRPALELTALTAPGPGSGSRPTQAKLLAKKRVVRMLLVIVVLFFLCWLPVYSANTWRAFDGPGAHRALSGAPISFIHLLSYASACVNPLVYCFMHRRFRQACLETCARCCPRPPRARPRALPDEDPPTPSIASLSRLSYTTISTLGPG
The test is described as follows: Displacement of [125I]-CCK-8 from human CCK2R expressed in human 1321N1 cell membranes after 2 hrs by SPA assay.

The target of test [3] is T1, Cholecystokinin receptor type A. The test is described as follows: Agonist activity at human CCK1R expressed in human 1321N1 cells assessed as IP1 accumulation after 1 hr by HTRF assay. It counts as functional, cell-based. A general note: TR-FRET usually uses a lanthanide donor and a delayed reading to cut background.
In test [4] the target is T2, Gastrin/cholecystokinin type B receptor. The test is described as follows: Agonist activity at human CCK2R expressed in human 1321N1 cells assessed as IP1 accumulation after 1 hr by HTRF assay. It counts as functional, cell-based.

Numbered stars: 1 amine (or outer) side, 2 acyl side, 3 side chain; on linkers, the order of the positions; unused ones are H or OH. Square brackets hold non-standard residues; d marks the D form. Peptide text beside a SMILES is read from it. * marks the point of attachment. Phe(4-CH2SO3H) = N[C@@H](Cc1ccc(CS(=O)(=O)O)cc1)C(=O)O; sY = N[C@@H](Cc1ccc(OS(=O)(=O)O)cc1)C(=O)O; C18 diacid = O=C(O)CCCCCCCCCCCCCCCCC(=O)*; C16 diacid = O=C(O)CCCCCCCCCCCCCCC(=O)*; γGlu = O=C(O)[C@H](CCC(=O)[*:2])N[*:1]; NMeF = CN[C@@H](Cc1ccccc1)C(=O)O; dNMeD = CN[C@H](CC(=O)O)C(=O)O; Nle = CCCC[C@H](N)C(=O)O; X1 = O=C(Cc1ccc(O)cc1)*; AEEA = NCCOCCOCC(=O)O

As to `CCCC[C@H](NC(=O)[C@H](Cc1c[nH]c2ccccc12)NC(=O)[C@@H]1CCCN1C(=O)[C@H](CCCC)NC(=O)[C@H](Cc1ccc(OS(=O)(=O)O)cc1)NC(=O)[C@H](CC(=O)O)NC(=O)COCCOCCNC(=O)COCCOCCNC(=O)CC[C@H](NC(=O)CCCCCCCCCCCCCCCCC(=O)O)C(=O)O)C(=O)N[C@@H](CC(=O)O)C(=O)N[C@@H](Cc1ccccc1)C(N)=O` ({C18 diacid-γGlu-AEEA-AEEA}-D[sY][Nle]PW[Nle]DF-NH2), the IC50 (usually the point on the concentration scale where inhibition reaches its midpoint) in test [1] was 933 nM; in test [2], 0.589 nM. Further, the EC50 (in general, the concentration at which the effect is half-maximal) in test [3] was 603 nM; in test [4] it was 0.38 nM.

Take `CCCC[C@H](NC(=O)Cc1ccc(O)cc1)C(=O)NCC(=O)N[C@@H](Cc1c[nH]c2ccccc12)C(=O)N[C@@H](CCCC)C(=O)N(C)[C@H](CC(=O)O)C(=O)N[C@@H](Cc1ccccc1)C(N)=O` (X1-[Nle]GW[Nle][dNMeD]F-NH2): the results for the IC50 in test [1] and in test [2] were 7.08 nM and greater than 10000 nM, respectively. Moreover, the EC50 is 1.55 nM in test [3] and greater than 1000 nM in test [4].

On to `CCCC[C@H](NC(=O)[C@H](Cc1c[nH]c2ccccc12)NC(=O)CNC(=O)[C@H](CC(C)C)NC(=O)[C@H](Cc1ccc(OS(=O)(=O)O)cc1)NC(=O)[C@H](CC(=O)O)NC(=O)COCCOCCNC(=O)COCCOCCNC(=O)CC[C@H](NC(=O)CCCCCCCCCCCCCCCCC(=O)O)C(=O)O)C(=O)N(C)[C@@H](CC(=O)O)C(=O)N[C@@H](Cc1ccccc1)C(N)=O`, for which, in test [2], the IC50 was 245 nM. Also, in test [4], the EC50 was 1.55 nM.

With `CCCC[C@H](NC(=O)[C@H](Cc1c[nH]c2ccccc12)NC(=O)CNC(=O)[C@H](CC(C)C)NC(=O)[C@H](Cc1ccc(CS(=O)(=O)O)cc1)NC(=O)[C@H](CC(=O)O)NC(=O)COCCOCCNC(=O)COCCOCCNC(=O)CC[C@H](NC(=O)CCCCCCCCCCCCCCC(=O)O)C(=O)O)C(=O)N(C)[C@H](CC(=O)O)C(=O)N(C)[C@@H](Cc1ccccc1)C(N)=O` ({C16 diacid-γGlu-AEEA-AEEA}-D[Phe(4-CH2SO3H)]LGW[Nle][dNMeD][NMeF]-NH2), the half-maximal effective concentration (EC50) in test [3] was 0.191 nM.

As for `CSCC[C@H](NC(=O)[C@H](Cc1c[nH]c2ccccc12)NC(=O)CNC(=O)[C@H](Cc1ccc(O)cc1)NC(=O)[C@H](C)NC(=O)[C@H](CCC(=O)O)NC(=O)[C@H](CCC(=O)O)NC(=O)[C@H](CCC(=O)O)NC(=O)[C@H](CCC(=O)O)NC(=O)[C@H](CCC(=O)O)NC(=O)[C@H](CC(C)C)NC(=O)[C@H](Cc1c[nH]c2ccccc12)NC(=O)[C@@H]1CCCN1C(=O)CNC(=O)[C@@H]1CCC(=O)N1)C(=O)N[C@@H](CC(=O)O)C(=O)N[C@@H](Cc1ccccc1)C(N)=O`, the IC50 in test [1] is 851 nM. Besides, the EC50 in test [3] was 269 nM.

In turn, `CC(C)C[C@H](NC(=O)[C@H](Cc1ccc(OS(=O)(=O)O)cc1)NC(=O)[C@H](CC(=O)O)NC(=O)COCCOCCNC(=O)COCCOCCNC(=O)CC[C@H](NC(=O)CCCCCCCCCCCCCCCCC(=O)O)C(=O)O)C(=O)NCC(=O)N[C@@H](Cc1c[nH]c2ccccc12)C(=O)N[C@@H](C)C(=O)N(C)[C@H](CC(=O)O)C(=O)N(C)[C@@H](Cc1ccccc1)C(N)=O` ({C18 diacid-γGlu-AEEA-AEEA}-D[sY]LGWA[dNMeD][NMeF]-NH2) showed an IC50 in test [1] of 0.617 nM. Further, the EC50 in test [3] is 0.166 nM.

With `CCCC[C@H](NC(=O)[C@H](Cc1c[nH]c2ccccc12)NC(=O)CNC(=O)[C@H](CC(C)C)NC(=O)[C@H](Cc1ccc(OS(=O)(=O)O)cc1)NC(=O)[C@H](CC(=O)O)NC(=O)COCCOCCNC(=O)COCCOCCNC(=O)CC[C@H](NC(=O)CCCCCCCCCCCCCCCCC(=O)O)C(=O)O)C(=O)N(C)[C@H](CC(=O)O)C(=O)N(C)[C@@H](Cc1ccccc1)C(N)=O`, in test [1], the IC50 is 0.0741 nM. Also, the values for the EC50 in test [3] and in test [4] were 0.363 nM and 123 nM, respectively.

In turn, `CCCC[C@H](NC(=O)[C@H](Cc1c[nH]c2ccccc12)NC(=O)CNC(=O)[C@H](CC(C)C)NC(=O)[C@H](Cc1ccc(OS(=O)(=O)O)cc1)NC(=O)[C@H](CC(=O)O)NC(=O)COCCOCCNC(=O)COCCOCCNC(=O)CC[C@H](NC(=O)CCCCCCCCCCCCCCCCC(=O)O)C(=O)O)C(=O)N(C)[C@H](CC(=O)O)C(=O)N[C@@H](Cc1ccccc1)C(N)=O` gave an IC50 in test [2] of 5620 nM. In addition, in test [4], the EC50 is 132 nM.

These data come from ChEMBL document CHEMBL4368907 (J Med Chem, 2019).
